The values that follow come from ChEMBL document CHEMBL4184243, “Optimization of antimalarial, and anticancer activities of (E)-methyl 2-(7-chloroquinolin-4-ylthio)-3-(4-hydroxyphenyl) acrylate” (Bioorg Med Chem, 2018).

Each structure is given as a SMILES string. Some results are limits rather than exact numbers.

Test system in one data set: not listed separately
Description: Selectivity index, ratio of IC50 for human lymphocytes to IC50 for human HL60 cells. Conditions: human lymphocytes versus HL60 cells, read-out: Ratio IC50. The class given is toxicity.
In the case of `COC(=O)/C(=C\c1ccc(OC(=O)c2cccc(OC)c2OC)cc1)Sc1ccnc2cc(Cl)ccc12`, the selectivity ratio was determined as 6.66.
Same read-out and setting: in the case of `COC(=O)/C(=C\c1ccc(OC(=O)c2cc(OC)cc(OC)c2)cc1)Sc1ccnc2cc(Cl)ccc12` it was 4.42; in that of `COC(=O)/C(=C\c1ccc(OC(=O)c2ccc(OC)cc2OC)cc1)Sc1ccnc2cc(Cl)ccc12`, 5.45.

The test system of a further data set is Jurkat E6.1. Description: Cytotoxicity against human Jurkat E6-1 cells after 24 hrs by MTT assay. The class given is functional, cell-based. Conditions: Jurkat E6.1, 24 h. (In general: Formazan colour is commonly taken as a measure of viable cells.)
By IC50 is commonly meant the point on the concentration scale where inhibition reaches its midpoint. In turn, `COC(=O)/C(=C\c1ccc(OC(=O)c2ccccc2)cc1)Sc1ccnc2cc(Cl)ccc12` displayed an IC50 of 35.7 µM.
Compound `COC(=O)/C(=C\c1ccc(OC(=O)c2cc(OCc3ccccc3)c(OCc3ccccc3)c(OCc3ccccc3)c2)cc1)Sc1ccnc2cc(Cl)ccc12` displayed an IC50 above 100 µM.
Turning to `COC(=O)/C(=C\c1ccc(OC(=O)c2cccc(OC)c2)cc1)Sc1ccnc2cc(Cl)ccc12`, inhibition was half-maximal at 33.2 µM (IC50).
As to `COC(=O)/C(=C\c1ccc(OC(=O)c2c(OC)cccc2OC)cc1)Sc1ccnc2cc(Cl)ccc12`, the IC50 is 37.5 µM.
The same measure, in the same setting: in the case of `COC(=O)/C(=C\c1ccc(OC(=O)c2ccccc2OC)cc1)Sc1ccnc2cc(Cl)ccc12` it was 44.6 µM; in that of `COC(=O)/C(=C\c1ccc(OC(=O)c2cccc(OC)c2OC)cc1)Sc1ccnc2cc(Cl)ccc12`, 25.8 µM; in that of `COC(=O)/C(=C\c1ccc(OC(=O)c2cc(OC)cc(OC)c2)cc1)Sc1ccnc2cc(Cl)ccc12`, 28.9 µM.
Same read-out and setting: as for `COC(=O)/C(=C\c1ccc(OC(=O)c2ccc(OC)cc2OC)cc1)Sc1ccnc2cc(Cl)ccc12`, the figure is 10.2 µM.

In a further data set the test system is Lymphocyte. The experiment in a line: Cytotoxicity against human lymphocytes after 24 to 48 hrs by MTT assay. The class given is cell-based.
Conditions: not given
In turn, `COC(=O)/C(=C\c1ccc(OC(=O)c2ccccc2)cc1)Sc1ccnc2cc(Cl)ccc12` came in with an IC50 above 100 µM.
Same read-out and setting: in the case of `COC(=O)/C(=C\c1ccc(OC(=O)c2cc(OCc3ccccc3)c(OCc3ccccc3)c(OCc3ccccc3)c2)cc1)Sc1ccnc2cc(Cl)ccc12` it was above 100 µM; in that of `COC(=O)/C(=C\c1ccc(OC(=O)c2cccc(OC)c2)cc1)Sc1ccnc2cc(Cl)ccc12`, above 100 µM.
On the same count and under the same terms, as for `COC(=O)/C(=C\c1ccc(OC(=O)c2c(OC)cccc2OC)cc1)Sc1ccnc2cc(Cl)ccc12`, the figure is above 100 µM.
Still for that read-out and setting: as for `COC(=O)/C(=C\c1ccc(OC(=O)c2ccccc2OC)cc1)Sc1ccnc2cc(Cl)ccc12`, the figure is above 100 µM; as for `COC(=O)/C(=C\c1ccc(OC(=O)c2cccc(OC)c2OC)cc1)Sc1ccnc2cc(Cl)ccc12`, 86.6 µM.
As to `COC(=O)/C(=C\c1ccc(OC(=O)c2cc(OC)cc(OC)c2)cc1)Sc1ccnc2cc(Cl)ccc12`, the IC50 was 84.1 µM.
Consider `COC(=O)/C(=C\c1ccc(OC(=O)c2ccc(OC)cc2OC)cc1)Sc1ccnc2cc(Cl)ccc12`, for which half-maximal inhibition (IC50) required 41.6 µM.

In another data set the test system is Jurkat E6.1. Description: Induction of apoptosis in human Jurkat E6-1 cells assessed as late apoptotic cells at 50 uM after 24 hrs by Annexin-V-FITC/propidium iodide staining based flow cytometric analysis (reference value: 0.73 +/- 0.14 %). It counts as functional.
Conditions: not given
(Flow cytometry measures light scatter and fluorescence of single cells or particles in a stream.)
In the case of `O=c1c(O)c(-c2ccc(O)c(O)c2)oc2cc(O)cc(O)c12` [QUERCETIN], the Activity was found to be 9.51%.

Test system in a further data set: not listed separately
The experiment in a line: Selectivity index, ratio of IC50 for human lymphocytes to IC50 for human Jurkat E6-1 cells. It counts as toxicity. Conditions: human lymphocytes versus Jurkat E6-1 cells, read-out: Ratio IC50.
Consider `COC(=O)/C(=C\c1ccc(OC(=O)c2cccc(OC)c2OC)cc1)Sc1ccnc2cc(Cl)ccc12`, for which the selectivity ratio was found to be 3.36.
On to `COC(=O)/C(=C\c1ccc(OC(=O)c2cc(OC)cc(OC)c2)cc1)Sc1ccnc2cc(Cl)ccc12`, for which the selectivity ratio is 2.92.
As to `COC(=O)/C(=C\c1ccc(OC(=O)c2ccc(OC)cc2OC)cc1)Sc1ccnc2cc(Cl)ccc12`, the selectivity ratio was found to be 4.09.

A further data set has as its system Jurkat E6.1. Description: Induction of apoptosis in human Jurkat E6-1 cells assessed as early apoptotic cells at 50 uM after 24 hrs by Annexin-V-FITC/propidium iodide staining based flow cytometric analysis (reference value: 0.5 +/- 0.07 %). It counts as functional.
Conditions: not given
Consider `O=c1c(O)c(-c2ccc(O)c(O)c2)oc2cc(O)cc(O)c12` [QUERCETIN], for which the Activity is 0.64%.

A further data set deals with Plasmodium berghei. The experiment in a line: Antimalarial activity against chloroquine-susceptible Plasmodium berghei ANKA infected in Balb-C mouse assessed as parasitemia at 10 mg/kg, ip administered once daily for 4 days measured post last dose by Giemsa staining based method (reference value: 65.8 +/- 4.38%). The class given is functional.
Conditions: not given
For `COC(=O)/C(=C\c1ccc(OC(=O)c2cccc(OC)c2)cc1)Sc1ccnc2cc(Cl)ccc12`, the Activity turned out to be 1.5%.
On the same count and under the same terms, in the case of `COC(=O)/C(=C\c1ccc(OC(=O)c2c(OC)cccc2OC)cc1)Sc1ccnc2cc(Cl)ccc12` it was 2.6%; in that of `COC(=O)/C(=C\c1ccc(OC(=O)c2ccccc2OC)cc1)Sc1ccnc2cc(Cl)ccc12`, 1.2%; in that of `COC(=O)/C(=C\c1ccc(OC(=O)c2cc(OC)cc(OC)c2)cc1)Sc1ccnc2cc(Cl)ccc12`, 1.4%.

Test system in another data set: not listed separately
The experiment in a line: Inhibition of beta-hematin formation assessed as reduction in acetate buffer-initiated hemozoin formation measured after 48 hrs. Conditions: concentration not given here. The arrangement: concentration or dose not given beside the values.
What is called inhibition is the change of the read-out against control, counted positive when it falls. On to `COC(=O)/C(=C\c1ccc(OC(=O)c2ccccc2)cc1)Sc1ccnc2cc(Cl)ccc12`, for which the inhibition came out at 33.6%.
In the case of `COC(=O)/C(=C\c1ccc(OC(=O)c2cc(OCc3ccccc3)c(OCc3ccccc3)c(OCc3ccccc3)c2)cc1)Sc1ccnc2cc(Cl)ccc12`, the inhibition was 23%.
As to `COC(=O)/C(=C\c1ccc(OC(=O)c2cccc(OC)c2)cc1)Sc1ccnc2cc(Cl)ccc12`, the inhibition was found to be 87.1%.
Still for that read-out and setting: in the case of `COC(=O)/C(=C\c1ccc(OC(=O)c2c(OC)cccc2OC)cc1)Sc1ccnc2cc(Cl)ccc12` it was 92.7%; in that of `COC(=O)/C(=C\c1ccc(OC(=O)c2ccccc2OC)cc1)Sc1ccnc2cc(Cl)ccc12`, 94.6%; in that of `COC(=O)/C(=C\c1ccc(OC(=O)c2cccc(OC)c2OC)cc1)Sc1ccnc2cc(Cl)ccc12`, 38.6%.
In the case of `COC(=O)/C(=C\c1ccc(OC(=O)c2cc(OC)cc(OC)c2)cc1)Sc1ccnc2cc(Cl)ccc12`, the inhibition stood at 85.6%.
The same measure, in the same setting: as for `COC(=O)/C(=C\c1ccc(OC(=O)c2ccc(OC)cc2OC)cc1)Sc1ccnc2cc(Cl)ccc12`, the figure is 49.2%.

The subject of another data set is Jurkat E6.1. The experiment in a line: Induction of apoptosis in human Jurkat E6-1 cells assessed as necrotic cells at 50 uM after 24 hrs by Annexin-V-FITC/propidium iodide staining based flow cytometric analysis (reference value: 1.26 +/- 0.24 %). It counts as functional.
Conditions: not given
As to `O=c1c(O)c(-c2ccc(O)c(O)c2)oc2cc(O)cc(O)c12` [QUERCETIN], the Activity worked out at 31.9%.

In the next data set the test system is HL-60. The experiment in a line: Induction of apoptosis in human HL60 cells assessed as necrotic cells at 50 uM after 24 hrs by Annexin-V-FITC/propidium iodide staining based flow cytometric analysis (reference value: 1.96 +/- 0.33 %). The class given is functional.
Conditions: not given
In the case of `O=c1c(O)c(-c2ccc(O)c(O)c2)oc2cc(O)cc(O)c12` [QUERCETIN], the Activity came to 31%.

The next data set has as its system HL-60. The experiment in a line: Cytotoxicity against human HL60 cells after 24 hrs by MTT assay. Conditions: HL-60, 24 h. It counts as functional, cell-based.
Consider `COC(=O)/C(=C\c1ccc(OC(=O)c2ccccc2)cc1)Sc1ccnc2cc(Cl)ccc12`, for which the IC50 amounted to 30.2 µM.
Same read-out and setting: as for `COC(=O)/C(=C\c1ccc(OC(=O)c2cc(OCc3ccccc3)c(OCc3ccccc3)c(OCc3ccccc3)c2)cc1)Sc1ccnc2cc(Cl)ccc12`, the figure is above 100 µM; as for `COC(=O)/C(=C\c1ccc(OC(=O)c2cccc(OC)c2)cc1)Sc1ccnc2cc(Cl)ccc12`, 25.5 µM; as for `COC(=O)/C(=C\c1ccc(OC(=O)c2c(OC)cccc2OC)cc1)Sc1ccnc2cc(Cl)ccc12`, 37.2 µM.
For `COC(=O)/C(=C\c1ccc(OC(=O)c2ccccc2OC)cc1)Sc1ccnc2cc(Cl)ccc12`, inhibition was half-maximal at 44.5 µM (IC50).
For the compound `COC(=O)/C(=C\c1ccc(OC(=O)c2cccc(OC)c2OC)cc1)Sc1ccnc2cc(Cl)ccc12`, the IC50 amounted to 13 µM.
The same measure, in the same setting: in the case of `COC(=O)/C(=C\c1ccc(OC(=O)c2cc(OC)cc(OC)c2)cc1)Sc1ccnc2cc(Cl)ccc12` it was 19 µM; in that of `COC(=O)/C(=C\c1ccc(OC(=O)c2ccc(OC)cc2OC)cc1)Sc1ccnc2cc(Cl)ccc12`, 7.64 µM.

For a further data set, the system named is HL-60. Description: Induction of apoptosis in human HL60 cells assessed as late apoptotic cells at 50 uM after 24 hrs by Annexin-V-FITC/propidium iodide staining based flow cytometric analysis (reference value: 0.85 +/- 0.13 %).
Conditions: not given
It counts as functional.
In the case of `O=c1c(O)c(-c2ccc(O)c(O)c2)oc2cc(O)cc(O)c12` [QUERCETIN], the Activity came to 3.07%.

For a further data set, the system named is HL-60. Description: Induction of apoptosis in human HL60 cells assessed as early apoptotic cells at 50 uM after 24 hrs by Annexin-V-FITC/propidium iodide staining based flow cytometric analysis (reference value: 0.36 +/- 0.02 %). It counts as functional.
Conditions: not given
For `O=c1c(O)c(-c2ccc(O)c(O)c2)oc2cc(O)cc(O)c12` [QUERCETIN], the Activity was 0.46%.

A further data set concerns Plasmodium berghei. The experiment in a line: Antimalarial activity against chloroquine-susceptible Plasmodium berghei ANKA infected in Balb-C mouse assessed as mean survival days at 10 mg/kg, ip administered once daily for 4 days (reference value: 8.4 +/- 0.15 day). It counts as functional.
Conditions: not given
As for `COC(=O)/C(=C\c1ccc(OC(=O)c2cccc(OC)c2)cc1)Sc1ccnc2cc(Cl)ccc12`, the MSD amounted to 27.16 days.
`COC(=O)/C(=C\c1ccc(OC(=O)c2c(OC)cccc2OC)cc1)Sc1ccnc2cc(Cl)ccc12`: the MSD amounted to 23 days.
Same read-out and setting: in the case of `COC(=O)/C(=C\c1ccc(OC(=O)c2ccccc2OC)cc1)Sc1ccnc2cc(Cl)ccc12` it was 28.83 days; in that of `COC(=O)/C(=C\c1ccc(OC(=O)c2cc(OC)cc(OC)c2)cc1)Sc1ccnc2cc(Cl)ccc12`, 28.5 days.
